Assay results: patent US20220380347A1, “INHIBITORS OF CYSTEINE PROTEASES AND METHODS OF USE THEREOF” (Pardes Biosciences, Inc., priority 2020, published 2022)
Where two headings read alike, the source gives them in different places.

Experiments:
229E Mpro = 229E Mpro (Human coronavirus 229E, UniProt P0C6X1); assay: 229E Mpro enzymatic assay (standard methods, SARS-CoV2 Mpro assay given as exemplary); type: biochemical, human coronavirus (HCov) 229E
Procedure, shortened: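 Run by standard methods, with the SARS-CoV-2 Mpro protocol given as the model: E. coli-expressed C-His6 protease at 25 nM and substrate at 25 μM (Km 13.5 μM). Buffer pH 7.3 with 5 mM TCEP and 0.1% BSA; % inhibition versus controls fitted to variable-slope log(inhibitor)-response for IC50.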

[1] = target: COVID-19 (nCoV-2019, SARS-CoV2) Mpro (Severe acute respiratory syndrome coronavirus 2, UniProt P0DTD1); assay: COVID-19 (nCoV-2019, SARS-CoV2) Mpro enzymatic assay; type: biochemical; settings: 25 nM Mpro, 25 μM substrate; read-out: COVID-19 Mpro IC50
HCoV 229E = HCoV 229E cytopathic effect (CPE) assay, CellTiter Glo; type: cell-based, human coronavirus (HCov) 229E; settings: protection of virus-induced CPE
Procedure: Example 238: Evaluation of antiviral activity of compounds against human coronavirus (HCov) 229E and OC43 in the cytopathic effect (CPE) assays
Compounds were assayed using standard methods against multiple coronaviral strains, including HCoV 229E and OC43 strains. The antiviral activity of compounds was calculated based on the protection of the virus-induced CPE at each concentration normalized by the virus control.
Cytopathic effect (CPE) was measured by CellTiter Glo following the manufacturer's manual. The antiviral activity of compounds was calculated based on the protection of the virus-induced CPE at each concentration normalized by the virus control.
Cell viability was measured with CellTiter Glo.

[2] = Cytotoxicity in parallel to the 229E CPE assay, without virus infection, CellTiter Glo; settings: 229E CC50, without virus infection
Procedure: Reagents and instruments used in this assay include luminescent cell viability assay kit CellTiter Glo (Promega) and Microplate Reader Synergy2 (BioTek).
The cytotoxicity of compounds was assessed under the same conditions, but without virus infection, in parallel. Cell viability was measured with CellTiter Glo. The antiviral activity and cytotoxicity of compounds were expressed as % Inhibition and % Viability, respectively, and calculated with formulas.

HCov OC43 = assay: HCoV OC43 cytopathic effect (CPE) assay, CellTiter Glo; type: cell-based, human coronavirus (HCov) OC43
[3] = Betacoronavirus 1, OC43, read-out: OC43 IC50 (uM) MEDIAN, median
[4] = read-out: OC43 IC50 (uM) MEDIAN, median

229E Mpro, sequence (P0C6X1 2966-3267): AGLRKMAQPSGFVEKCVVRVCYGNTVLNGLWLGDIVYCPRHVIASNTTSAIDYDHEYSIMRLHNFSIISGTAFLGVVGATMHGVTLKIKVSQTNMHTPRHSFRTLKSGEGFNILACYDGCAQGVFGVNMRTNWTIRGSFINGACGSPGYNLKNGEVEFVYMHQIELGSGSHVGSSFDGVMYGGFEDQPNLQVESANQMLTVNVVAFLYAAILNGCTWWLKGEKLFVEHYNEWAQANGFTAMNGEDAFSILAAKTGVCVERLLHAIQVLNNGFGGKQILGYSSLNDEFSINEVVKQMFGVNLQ

Compound | EC50 (229E Mpro; 229E Mpro EC50) [nM] | IC50 [1] [µM] | EC50 (HCoV 229E; unidentified human coronavirus) [nM] | CC50 [2] [µM] | EC50 (229E Mpro; read-out: 229E Mpro EC50) [nM] | IC50 (HCov OC43; [3]) [µM] | EC50 (HCoV 229E) [nM] | IC50 (HCov OC43; [4]) [µM] | IC50 (HCov OC43; read-out: OC43 IC50 (uM) MEDIAN, median, listed as 876 Isomer 1) [µM]
CN1CCN(C#N)C(C(=O)N(c2ccc(C(C)(C)C)cc2)C(C(=O)NC2CCCCC2)c2cccnc2)C1 (single isomer, unassigned) [Compound 217 Isomer 2, N-(4-tert-butylphenyl)-1-cyano-N-[2-(cyclohexylamino)-2-oxo-1-(3-pyridyl)ethyl]-4-methyl-piperazine-2-carboxamide] | < 2000 | < 2 | < 2000 | > 30 | – | – | – | – | –
C[C@@H]1CC[C@H](C(=O)N(c2ccc(C(C)(C)C)cc2)C(C(=O)NC2CCCCC2)c2cccnc2)N1C#N (single isomer, unassigned) [Compound 244 Isomer 1] | < 2000 | 2 to 10 | < 2000 | > 30 | – | – | – | – | –
CC(C)(C)c1ccc(N(C(=O)[C@H]2C[C@@H](O)CN2C#N)C(C(=O)NC2CCCCC2)c2cccnc2)cc1 (single isomer, unassigned) [Compound 254 Isomer 2] | – | < 2 | – | > 30 | < 2000 | < 2 | – | – | –
N#CN1C[C@H](O)C[C@@H]1C(=O)N(c1ccc2c(c1)NCCC2)C(C(=O)NC1CCCCC1)c1cccnc1 (single isomer, unassigned) [Compound 755 Isomer 1] | < 2000 | < 2 | < 2000 | – | – | < 2 | – | – | –
N#CN1C[C@H](O)C[C@@H]1C(=O)N(c1ccc2c(c1)NCCC2)C(C(=O)NC1CCCCC1)c1cccnc1 (single isomer, unassigned) [Compound 755 Isomer 2] | 2000 to 10000 | 10 to 30 | – | – | – | – | < 2000 | 2 to 10 | –
N#CN1C[C@H](O)C[C@@H]1C(=O)N(c1ccc(C2CC2)cc1F)C(C(=O)NC1CCCCC1)c1cccnc1 (single isomer, unassigned) [Compound 763 Isomer 2] | 2000 to 10000 | 10 to 30 | < 2000 | – | – | – | – | 2 to 10 | –
N#CN1C[C@H](O)C[C@@H]1C(=O)N(c1ccc(C2CC2)c(F)c1)C(C(=O)NC1CCCCC1)c1cccnc1 (single isomer, unassigned) [Compound 767 Isomer 1] | < 2000 | < 2 | 2000 to 10000 | – | – | < 2 | – | – | –
N#CN1C[C@H](O)C[C@@H]1C(=O)N(c1ccc(C(F)(C(F)(F)F)C(F)(F)F)cc1)C(C(=O)NC1CCCCC1)c1cccnc1 (single isomer, unassigned) [Compound 779 Isomer 1] | < 2000 | < 2 | 2000 to 10000 | – | – | < 2 | – | – | –
N#CN1C[C@H](O)C[C@@H]1C(=O)N(c1ccc(S(F)(F)(F)(F)F)cc1)C(C(=O)NC1CCCCC1)c1cccnc1 (single isomer, unassigned) [Compound 791 Isomer 2] | – | 2 to 10 | < 2000 | – | < 2000 | – | – | < 2 | –
CC(C)(C)c1ccc(N(C(=O)[C@H]2C[C@@H](F)CN2C#N)C(C(=O)NC2CCCCC2)c2cccnc2)cc1 (single isomer, unassigned) [Compound 870 Isomer 1] | < 2000 | < 2 | < 2000 | – | – | < 2 | – | – | –
CC(C)(C)c1ccc(N(C(=O)[C@H]2C[C@@H](F)CN2C#N)C(C(=O)NC2CCCCC2)c2cccnc2)cc1 (single isomer, unassigned) [Compound 870 Isomer 2] | – | 2 to 10 | – | – | < 2000 | – | 2000 to 10000 | < 2 | –
CC(C)(C)c1ccc(N(C(=O)[C@H]2CC(F)(F)CN2C#N)C(C(=O)NC2CCCCC2)c2cccnc2)cc1 (single isomer, unassigned) [Compound 876 Isomer 1] | < 2000 | 2 to 10 | < 2000 | – | – | – | – | – | 10 to 30
C[C@@]1(O)C[C@H](C(=O)N(c2ccc(S(F)(F)(F)(F)F)cc2)C(C(=O)NC2CCC(F)(F)CC2)c2cccnc2)N(C#N)C1 (single isomer, unassigned) [Compound 1156 Isomer 1] | < 2000 | 2 to 10 | < 2000 | – | – | 2 to 10 | – | – | –
C[C@@]1(O)C[C@H](C(=O)N(c2ccc(S(F)(F)(F)(F)F)cc2)C(C(=O)NC2CCC(F)(F)CC2)c2cccnc2)N(C#N)C1 (single isomer, unassigned) [Compound 1156 Isomer 2] | – | < 2 | – | – | < 2000 | – | 2000 to 10000 | < 2 | –
CC(C)(C)c1ccc(N(C(=O)c2c[nH]cn2)C(C(=O)NC2CCCCC2)c2cccnc2C#N)cc1 (stereo not drawn) [Compound 100, N-(4-tert-butylphenyl)-N-[1-(2-cyano-3-pyridyl)-2-(cyclohexylamino)-2-oxo-ethyl]-1H-imidazole-5-carboxamide] | 2000 to 10000 | 10 to 30 | 2000 to 10000 | > 30 | – | – | – | – | –
CC(C)(C)c1ccc(N(C(=O)c2cnc[nH]2)C(C(=O)NC2CCCCC2)c2cncnc2C#N)cc1 (stereo not drawn) [Compound 103, N-(4-(tert-butyl)phenyl)-N-(1-(4-cyanopyrimidin-5-yl)-2-(cyclohexylamino)-2-oxoethyl)-1H-imidazole-5-carboxamide] | 2000 to 10000 | 10 to 30 | 10000 to 30000 | > 30 | – | – | – | – | –
CC(C)(C)c1ccc(C(C(=O)c2cnc[nH]2)C(C(=O)NC2CCCCC2)c2nccnc2C#N)cc1 (stereo not drawn) [Compound 105] | 10000 to 30000 | > 30 | 2000 to 10000 | > 30 | – | – | – | – | –
Cc1nnsc1C(C(=O)NC1CCCCC1)N(C(=O)c1cnc[nH]1)c1ccc(C(C)(C)C)cc1 (stereo not drawn) [Compound 109] | 2000 to 10000 | > 30 | 2000 to 10000 | > 30 | – | – | – | – | –
CC(C)(C)c1ccc(N(C(=O)C2CS(=O)(=O)CCN2C#N)C(C(=O)NC2CCCCC2)c2cccnc2)cc1 (stereo not drawn) [Compound 226] | < 2000 | < 2 | 2000 to 10000 | – | – | 2 to 10 | – | – | –
CC(C)(C)c1ccc(N(C(=O)[C@H]2CCCN2C#N)C(C(=O)NCC(=O)N2CCOCC2)c2cccnc2)cc1 (stereo partly drawn) [Compound 403, (2R)—N-(4-(tert-butyl)phenyl)-1-cyano-N-(2-((2-morpholino-2-oxoethyl)amino)-2-oxo-1-(pyridin-3-yl)ethyl)pyrrolidine-2-carboxamide] | < 2000 | < 2 | 2000 to 10000 | – | – | 2 to 10 | – | – | –
CN(C)C(=O)CNC(=O)C(c1cccnc1)N(C(=O)[C@H]1CCCN1C#N)c1ccc(C(C)(C)C)cc1 (stereo partly drawn) [Compound 415, (2R)—N-(4-(tert-butyl)phenyl)-1-cyano-N-(2-((2-(dimethylamino)-2-oxoethyl)amino)-2-oxo-1-(pyridin-3-yl)ethyl)pyrrolidine-2-carboxamide] | < 2000 | 2 to 10 | 2000 to 10000 | – | – | 2 to 10 | – | – | –
CC(C)(C)c1ccc(N(C(=O)[C@H]2C[C@@H](O)CN2C#N)C(C(=O)Nc2c(Cl)cccc2Cl)c2cccnc2)cc1 (stereo partly drawn) [Compound 591, (2R,4R)—N-(4-(tert-butyl)phenyl)-1-cyano-N-(2-((2,6-dichlorophenyl)amino)-2-oxo-1-(pyridin-3-yl)ethyl)-4-hydroxypyrrolidine-2-carboxamide] | 2000 to 10000 | 2 to 10 | 2000 to 10000 | – | – | > 30 | – | – | –
CC(C)(C)c1ccc(N(C(=O)[C@H]2C[C@@H](O)CN2C#N)C(C(=O)NC2CCCCC2)c2c[nH]nn2)cc1 (stereo partly drawn) [Compound 663, (2R,4R)—N-(4-(tert-butyl)phenyl)-1-cyano-N-(2-(cyclohexylamino)-2-oxo-1-(1H-1,2,3-triazol-4-yl)ethyl)-4-hydroxypyrrolidine-2-carboxamide] | < 2000 | 2 to 10 | < 2000 | – | – | 2 to 10 | – | – | –
Cc1nc2ccc(N(C(=O)[C@H]3C[C@@H](O)CN3C#N)C(C(=O)NC3CCCCC3)c3cccnc3)cc2[nH]1 (stereo partly drawn) [Compound 759, (2R,4R)-1-cyano-N-(2-(cyclohexylamino)-2-oxo-1-(pyridin-3-yl)ethyl)-4-hydroxy-N-(2-methyl-1H-benzo[d]imidazol-6-yl)pyrrolidine-2-carboxamide] | > 30000 | > 30 | < 2000 | – | – | > 30 | – | – | –
CC(C)(C)c1ccc(N(C(=O)[C@H]2CCCN2C#N)C(C(=O)N2CC(F)C2)c2cccnc2)cc1 (stereo partly drawn) [Compound 952, (2R)—N-(4-(tert-butyl)phenyl)-1-cyano-N-(2-(3-fluoroazetidin-1-yl)-2-oxo-1-(pyridin-3-yl)ethyl)pyrrolidine-2-carboxamide] | < 2000 | 2 to 10 | 2000 to 10000 | – | – | 2 to 10 | – | – | –
CN1CCN(C(=O)C(c2cccnc2)N(C(=O)[C@H]2CCCN2C#N)c2ccc(C(C)(C)C)cc2)CC1=O (stereo partly drawn) [Compound 969] | < 2000 | < 2 | 2000 to 10000 | – | – | 2 to 10 | – | – | –
CC(C)(O)CNC(=O)C(c1cccnc1)N(C(=O)[C@H]1CCCN1C#N)c1ccc(C(C)(C)C)cc1 (stereo partly drawn) [Compound 1119] | < 2000 | 2 to 10 | 2000 to 10000 | – | – | 2 to 10 | – | – | –
